Results on ten compounds are retold here after patent US9725459B2, “3-oxo-tetrahydro-furo[3,2-B]pyrrol-4(5H)-yl) derivatives I” (GRÜNENTHAL GMBH, priority 2014, dated 2017).

For series [1], the target named is human cathepsin S (CatS) (Homo sapiens (Human), UniProt P25774). The series can be described thus: CatS functional enzyme assay. Format: biochemical. The settings on record: for Selectivity Ki(hCatS)/Ki(hCatK): ratio Ki(hCatS)/Ki(hCatK); for Ki: recombinant human CatS, substrate Z-VVR-AMC 5 μM, pH 6.5, Ki by Cheng Prusoff equation, read-out: hCatS, Ki. In a few lines: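 Recombinant human enzymes were incubated 10 min at RT with AMC substrate: CatS 0.0007 mU/well with Z-VVR-AMC 5 µM; CatK 0.00175 mU/well with Z-FR-AMC 40 µM; CatL 0.000874 mU/well with Z-VVR-AMC 40 µM. Fluorescence gave IC50, converted to Ki by Cheng-Prusoff.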
Sequence of human cathepsin S (CatS) (P25774 115-331): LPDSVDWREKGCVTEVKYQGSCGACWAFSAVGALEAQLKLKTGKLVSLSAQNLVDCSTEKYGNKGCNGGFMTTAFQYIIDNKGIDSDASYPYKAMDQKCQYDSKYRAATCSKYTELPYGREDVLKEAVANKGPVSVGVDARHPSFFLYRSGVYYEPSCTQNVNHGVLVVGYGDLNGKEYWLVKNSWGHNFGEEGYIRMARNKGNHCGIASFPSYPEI

Series [2] addresses human cathepsin K (CatK) (Homo sapiens (Human), UniProt P43235). In words: CatK functional enzyme assay. Format: biochemical. As to conditions: recombinant human CatK, substrate Z-FR-AMC 40 μM, pH 5.5; Ki by Cheng Prusoff equation; read-out: hCatK, Ki. Summed up: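 Recombinant human enzymes in 50 mM NaOAc, 10 mM EDTA, 1 mM DTT, 0.01% Triton X-100, pH 5.5, 10 min at RT. CatK: 0.00175 mU/well with 40 μM Z-FR-AMC; CatL: 0.000874 mU/well with 40 μM Z-VVR-AMC. AMC fluorescence read; IC50 converted to Ki via Cheng–Prusoff.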

Series [3] deals with Caco-2 cells. The series can be described thus: Caco 2 permeability assay. Format: in vitro ADME, human. As to conditions: Caco-2, verbal assessment. The procedure: (§1) The intestinal permeability of a potential drug is assessed by in vitro cell culture from a human colon adenoma-carcinoma derived cell line. This cell line expresses some of the systems considered relevant to active drug transport e.g. […] (P-gp). In vitro cellular permeability assays can reflect both, permeation by passive diffusion and active transport (uptake and efflux). The rate of permeation across monolayers of Caco 2 cells were correlated to the extents of absorption (Hidalgo et al., Gastroenterology 1989; 96(3):736 49). Original methodology was developed by Artursson and Taveli (Drug Bioavailability. Series: Methods and Principles in Medicinal Chemistry. Weinheim: Wiley-VCH Verlag; 2003; p. 72-89).
(§2) The assay is performed as a trans-flux experiment. Caco-2 cells (cells from ATCC) are seeded and grown to confluence to form a monolayer (ca. 3 weeks, between passage numbers 40-60) on a readily permeable support in a plastic well supported within a chamber (Millipore Multiscreen Caco-2 plates, at a cell density of ca. 1×10^5 cells/cm^2). Cells are cultured for 20 days in DMEM and media is changed every two or three days. The cells form tight junctions, so paracellular diffusion is not possible, and grow in a polarised manner, efflux transporters (P-gp) are expressed on their apical surfaces facing the culture medium, rather than at their basolateral surfaces through which they are attached to the support membrane. A low concentration of a test compound is added to the upper (apical: A) or lower (basolateral: B) chambers, and the rate of loss from the donor compartment, and the rate of transfer to the acceptor chamber, is determined by LC-MS/MS. Consequently the influence of efflux transporters expressed in the apical membrane can be determined by comparing permeability rates from A to B and B to A. Assays are generally performed in gently shaken protein-free buffer.
(§3) On ca. day 20 the permeability study is performed. The monolayers are prepared by rinsing both basolateral and apical surfaces twice with Hanks Balanced Salt Solution (HBSS) pH 7.4 buffer with HEPES (25 mM) and 4.45 mM glucose at 37° C. Cells are then incubated with HBSS in both apical and basolateral compartments for 40 min to stabilise physiological parameters. Incubations are carried out in an atmosphere of 5% CO2 with a rel. humidity of 95% at 37° C.
(§4) HBSS is next removed from the apical compartment and replaced with test compound dosing solution. Test compound dosing solutions are made by diluting 10 mM test compound in DMSO with HBSS to give a final test compound concentration of 10 μM (final DMSO concentration 1%).
(§5) The fluorescent integrity marker lucifer yellow is also included in the dosing solution. Analytical standards are made from dosing solutions. The apical compartment inserts are then placed into ‘companion’ plates containing fresh HBSS. For basolateral to apical (B-A) permeability determination the experiment is initiated by replacing buffer in the inserts then placing them in companion plates containing dosing solutions. At 120 min the companion plate is removed and apical and basolateral samples diluted for analysis by LC-MS/MS. Test compound permeability is assessed in duplicate. […] Talinolol (a known P-gp substrate 2) is also included as a control compound to assess whether functional P-gp is present in the Caco-2 cell monolayer.
(§6) Test and control compounds are quantified by LC-MS/MS cassette analysis using a 5-point calibration with appropriate dilution of the samples. The starting concentration (C0) and experimental recovery are calculated from both apical and basolateral compartment concentrations.
(§7) Apparent permeability (Papp), used interchangeably with effective permeability (Peff) and efflux ratio (ER) are generated for each compound and reference compound. The permeability coefficient for each compound (Papp) is calculated from the following equation: Peff=dQ/dt/C0×A […]

The nature of series [4]: Caco 2 permeability assay. As to conditions: human. Format: in vitro ADME, human. The protocol:
as §1, §2, §3, §4, §5, §6, §7

The target in series [5] is human cathepsin L (CatL) (Homo sapiens (Human), UniProt P07711). In words: CatL functional enzyme assay. It counts as biochemical. As to conditions: read-out: hCatL, inhibition [%] at 31.6 μM.
Sequence of human cathepsin L (CatL) (P07711 114-333): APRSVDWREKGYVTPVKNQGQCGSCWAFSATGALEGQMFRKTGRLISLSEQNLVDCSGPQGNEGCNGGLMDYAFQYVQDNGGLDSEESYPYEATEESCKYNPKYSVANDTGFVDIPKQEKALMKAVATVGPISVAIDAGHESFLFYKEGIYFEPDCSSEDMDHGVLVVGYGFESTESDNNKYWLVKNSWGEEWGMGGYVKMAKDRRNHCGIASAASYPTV

Sequence of human cathepsin K (CatK) (P43235 115-329): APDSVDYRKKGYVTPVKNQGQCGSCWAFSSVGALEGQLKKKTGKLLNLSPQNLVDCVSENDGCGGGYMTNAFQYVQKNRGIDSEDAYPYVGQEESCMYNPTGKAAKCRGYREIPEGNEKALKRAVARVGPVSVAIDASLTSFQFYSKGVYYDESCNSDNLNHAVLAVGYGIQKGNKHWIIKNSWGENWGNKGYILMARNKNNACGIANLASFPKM

Turning to `O=C(N[C@H](C(=O)N1C[C@H](Cl)[C@H]2OCC(=O)[C@H]21)C1CCCCC1)c1ccc(-c2cncnc2)s1` [Example 5, N-((S)-2-((3aS,6S,6aS)-6-chloro-3-oxotetrahydro-2H-furo[3,2-b]pyrrol-4(5H)-yl)-1-cyclohexyl-2-oxoethyl)-5-(pyrimidin-5-yl)thiophene-2-carboxamide], in series [1], the “Selectivity Ki(hCatS)/Ki(hCatK)” value turned out to be 1.5 and the Ki was 48 nM. The Ki in series [2] was 31 nM. In series [3], the “A to B permeability (in words)” value is given as “moderate”, the “B to A permeability (in words)” value is listed as “good” and the “efflux ratio (ER) (in words)” value is on record as “intermediate/low”. Further, the efflux ratio at 120 min, 10 μM in series [4] (pH 7.4, efflux ratio ER=Peff(B−A)/Peff(A−B), Caco-2) was 3.5. In addition, the Papp A→B at 120 min, 10 μM in series [4] (Caco-2 monolayer, apical to basolateral, 10 μM, 120 min, HBSS pH 7.4, read-out: Peff a − b) was 4.13 ×10⁻⁶ cm/s. For the same compound, the Papp B→A at 120 min, 10 μM in series [4] (Caco-2 monolayer, basolateral to apical, 10 μM, 120 min, HBSS pH 7.4, read-out: Peff b − a) stood at 14.2 ×10⁻⁶ cm/s. In addition, in series [5], the inhibition at 31.6 µM turned out to be 27%.

`O=C(N[C@H](C(=O)N1C[C@H](Cl)[C@H]2OCC(=O)[C@H]21)C1CCCCC1)c1ncc(-c2ccnc(C3CC3)c2)s1` [Example 82, N-((S)-2-((3aS,6S,6aS)-6-chloro-3-oxotetrahydro-2H-furo[3,2-b]pyrrol-4(5H)-yl)-1-cyclohexyl-2-oxoethyl)-5-(2-cyclopropylpyridin-4-yl)thiazole-2-carboxamide]: in series [1], the “Selectivity Ki(hCatS)/Ki(hCatK)” value is 14.3 and the Ki was 129 nM. For the same compound, the Ki in series [2] is 9 nM. Also, the inhibition at 31.6 µM in series [5] amounted to 24%.

Regarding `Cc1ncccc1-c1ccc(C(=O)N[C@H](C(=O)N2C[C@H](Cl)[C@H]3OCC(=O)[C@H]32)C2CCCCC2)s1` [Example 83, N-((S)-2-((3aS,6S,6aS)-6-chloro-3-oxotetrahydro-2H-furo[3,2-b]pyrrol-4(5H)-yl)-1-cyclohexyl-2-oxoethyl)-5-(2-methylpyridin-3-yl)thiophene-2-carboxamide], in series [1], the “Selectivity Ki(hCatS)/Ki(hCatK)” value came out at 44.0 and the Ki was 296 nM. The Ki in series [2] is 7 nM. Also, in series [5], the inhibition at 31.6 µM is 1%.

On to `Cc1ccnnc1-c1ccc(C(=O)N[C@H](C(=O)N2C[C@H](Cl)[C@H]3OCC(=O)[C@H]32)C2CCCCC2)s1` [Example 84, N-((S)-2-((3aS,6S,6aS)-6-chloro-3-oxotetrahydro-2H-furo[3,2-b]pyrrol-4(5H)-yl)-1-cyclohexyl-2-oxoethyl)-5-(4-methylpyridazin-3-yl)thiophene-2-carboxamide], for which, in series [1], the “Selectivity Ki(hCatS)/Ki(hCatK)” value came out at 21.8. For the same compound, the Ki in series [1] is 358 nM; in series [2] it was 16 nM. Besides, the inhibition at 31.6 µM in series [5] stood at 6%.

Take `CCc1cc(-c2ccc(C(=O)N[C@H](C(=O)N3C[C@H](Cl)[C@H]4OCC(=O)[C@H]43)C3CCCCC3)s2)cnn1` [Example 85, N-((S)-2-((3aS,6S,6aS)-6-chloro-3-oxotetrahydro-2H-furo[3,2-b]pyrrol-4(5H)-yl)-1-cyclohexyl-2-oxoethyl)-5-(6-ethylpyridazin-4-yl)thiophene-2-carboxamide]: in series [1], the “Selectivity Ki(hCatS)/Ki(hCatK)” value came to 1.1 and the Ki was determined as 6 nM. In addition, the Ki in series [2] stood at 5 nM. In addition, the inhibition at 31.6 µM in series [5] is 14%.

Turning to `CCc1cc(-c2ccc(C(=O)N[C@H](C(=O)N3C[C@H](Cl)[C@H]4OCC(=O)[C@H]43)C3CCCCC3)s2)ccn1` [Example 86, N-((S)-2-((3aS,6S,6aS)-6-chloro-3-oxotetrahydro-2H-furo[3,2-b]pyrrol-4(5H)-yl)-1-cyclohexyl-2-oxoethyl)-5-(2-ethylpyridin-4-yl)thiophene-2-carboxamide], in series [1], the “Selectivity Ki(hCatS)/Ki(hCatK)” value stood at 16.7 and the Ki is 24 nM. For the same compound, the Ki in series [2] was 1 nM. Also, the inhibition at 31.6 µM in series [5] turned out to be 25%.

For the compound `CCc1cc(-c2cnc(C(=O)N[C@H](C(=O)N3C[C@H](Cl)[C@H]4OCC(=O)[C@H]43)C3CCCCC3)s2)ccn1` [Example 87, N-((S)-2-((3aS,6S,6aS)-6-chloro-3-oxotetrahydro-2H-furo[3,2-b]pyrrol-4(5H)-yl)-1-cyclohexyl-2-oxoethyl)-5-(2-ethylpyridin-4-yl)thiazole-2-carboxamide], in series [1], the “Selectivity Ki(hCatS)/Ki(hCatK)” value worked out at 16.2 and the inhibition constant Ki was 59 nM. In addition, the Ki in series [2] is 4 nM. For the same compound, in series [5], the inhibition at 31.6 µM came out at 14%.

On to `Cc1cc(-c2ccc(C(=O)N[C@H](C(=O)N3C[C@H](Cl)[C@H]4OCC(=O)[C@H]43)C3CCCCC3)s2)c(C)cn1` [Example 88, N-((S)-2-((3aS,6S,6aS)-6-chloro-3-oxotetrahydro-2H-furo[3,2-b]pyrrol-4(5H)-yl)-1-cyclohexyl-2-oxoethyl)-5-(2,5-dimethylpyridin-4-yl)thiophene-2-carboxamide], for which the “Selectivity Ki(hCatS)/Ki(hCatK)” value in series [1] is reported as 18.6. Besides, the inhibition constant Ki in series [1] came to 335 nM; in series [2], 18 nM. In addition, in series [5], the inhibition at 31.6 µM was found to be 0%.

Regarding `Cc1cc(-c2ccc(C(=O)N[C@H](C(=O)N3C[C@H](Cl)[C@H]4OCC(=O)[C@H]43)C3CCCCC3)s2)c(C)nn1` [Example 89, N-((S)-2-((3aS,6S,6aS)-6-chloro-3-oxotetrahydro-2H-furo[3,2-b]pyrrol-4(5H)-yl)-1-cyclohexyl-2-oxoethyl)-5-(3,6-dimethylpyridazin-4-yl)thiophene-2-carboxamide], the “Selectivity Ki(hCatS)/Ki(hCatK)” value in series [1] came to 0.7. Also, the Ki in series [1] was determined as 13 nM; in series [2], 18 nM. In series [5], the inhibition at 31.6 µM came to 12%.

With `Cc1cnncc1-c1ccc(C(=O)N[C@H](C(=O)N2C[C@H](Cl)[C@H]3OCC(=O)[C@H]32)C2CCCCC2)s1` [Example 90, N-((S)-2-((3aS,6S,6aS)-6-chloro-3-oxotetrahydro-2H-furo[3,2-b]pyrrol-4(5H)-yl)-1-cyclohexyl-2-oxoethyl)-5-(5-methylpyridazin-4-yl)thiophene-2-carboxamide], in series [1], the “Selectivity Ki(hCatS)/Ki(hCatK)” value was 7.3 and the inhibition constant Ki worked out at 73 nM. In addition, the Ki in series [2] turned out to be 10 nM. Also, in series [5], the inhibition at 31.6 µM was determined as 20%.
